From patent publication US5543406A, “Inhibitors of 5-α-testosterone reductase” (priority 1994, dated 1996)

Key:
Steroid 5-α-Reductase [1] = biological target: T1, Steroid 5-α-Reductase (Homo sapiens, UniProt P31213); test: Steroid 5-α-reductase in vitro assay, human prostate microsomes (BPH patients); format: biochemical; conditions: human prostatic microsomes; 100 nM [3H]-testosterone, 1 mM NADPH, 60 minutes at 37° C.
T1 construct: microsomes derived from prostate tissue of benign prostatic hypertrophy (BPH) patients; from tissue; host or cells: prostate tissue of BPH patients, microsomes
T1 sequence (P31213 1-254): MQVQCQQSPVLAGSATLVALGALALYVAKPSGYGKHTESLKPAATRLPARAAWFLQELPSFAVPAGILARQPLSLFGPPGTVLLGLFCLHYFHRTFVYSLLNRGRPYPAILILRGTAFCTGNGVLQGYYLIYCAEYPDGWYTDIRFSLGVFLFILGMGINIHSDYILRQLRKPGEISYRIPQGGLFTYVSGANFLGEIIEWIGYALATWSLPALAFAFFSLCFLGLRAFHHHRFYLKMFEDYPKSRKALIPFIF

Steroid 5-α-Reductase [2] = test: Steroid 5-α-reductase in vitro assay, rat prostate microsomes; format: biochemical; conditions: rat prostatic microsomes; 100 nM [3H]-testosterone, 1 mM NADPH, 60 minutes at 37° C.; read-out: ID50 Rat

Row | IC50 (Steroid 5-α-Reductase [1]) | IC50 (Steroid 5-α-Reductase [2]) | SMILES
1 | 10 to 100 nM | 100 to 1000 nM | CCN(CC)C(=O)[C@H]1CC[C@H]2[C@@H]3CNC4=CC(=O)C=C[C@]4(C)[C@H]3CC[C@]12C [Compound 6, 17β-N,N-Diethylcarbamoyl-6-azaandrost-1,4-dien-3-one]
2 | < 10 nM | 100 to 1000 nM | CCN(CC)C(=O)[C@H]1CC[C@H]2[C@@H]3CNC4=C(Br)C(=O)CC[C@]4(C)[C@H]3CC[C@]12C [Compound 9, 17β-N,N-Diethylcarbamoyl-6-azaandrost-4-bromo-4-en-3-one]
3 | < 10 nM | 100 to 1000 nM | CC(C)N(C(=O)[C@H]1CC[C@H]2[C@@H]3CNC4=CC(=O)CC[C@]4(C)[C@H]3CC[C@]12C)C(C)C [Compound 17, 17β-N,N-Diisopropylcarbamoyl-6-azaandrost-4-en-3-one]
4 | < 10 nM | 10 to 100 nM | CC(C)N(C(=O)[C@H]1CC[C@H]2[C@@H]3CN(C)C4=CC(=O)CC[C@]4(C)[C@H]3CC[C@]12C)C(C)C [Compound 18, 17β-N,N-Diisopropylcarbamoyl-6-methyl-6-azaandrost-4-en-3-one]
5 | < 10 nM | < 10 nM | CN1C[C@H]2[C@@H]3CC[C@H](C(=O)NC45CC6CC(CC(C6)C4)C5)[C@@]3(C)CC[C@@H]2[C@@]2(C)CCC(=O)C=C12 [Compound 20, 17β-N-1-Adamantylcarbamoyl-6-methyl-6-azaandrost-4-en-3-one]
6 | < 10 nM | 100 to 1000 nM | CON(C)C(=O)[C@H]1CC[C@H]2[C@@H]3CNC4=CC(=O)CC[C@]4(C)[C@H]3CC[C@]12C [Compound 21, 17β-N-Methoxy-N-methylcarbamoyl-6-azaandrost-4-en-3-one]
7 | 10 to 100 nM | 100 to 1000 nM | C[C@]12CC[C@H]3[C@@H](CNC4=CC(=O)CC[C@@]43C)[C@@H]1CC[C@@H]2C(=O)N1CCOCC1 [Compound 23, 17β-N-Morpholinocarbamoyl-6-azaandrost-4-en-3-one]
8 | 10 to 100 nM | 100 to 1000 nM | CCN(CC)C(=O)[C@H]1CC[C@H]2[C@@H]3CN(C)C4=CC(=O)C=C[C@]4(C)[C@H]3CC[C@]12C [Compound 27, 17β-N,N-Diethylcarbamoyl-6-methyl-6-azaandrost-1,4-dien-3-one]
9 | 10 to 100 nM | 100 to 1000 nM | CC(C)(C)NC(=O)[C@H]1CC[C@H]2[C@@H]3CNC4=CC(=O)C=C[C@]4(C)[C@H]3CC[C@]12C [Compound 28, 17β-N-t-Butylcarbamoyl-6-azaandrost-1,4-dien-3-one]
10 | 10 to 100 nM | 100 to 1000 nM | CN1C[C@H]2[C@@H]3CC[C@H](C(=O)NC(C)(C)C)[C@@]3(C)CC[C@@H]2[C@@]2(C)C=CC(=O)C=C12 [Compound 29, 17β-N-t-Butylcarbamoyl-6-methyl-6-azaandrost-1,4-dien-3-one]
11 | < 10 nM | 10 to 100 nM | CN1C[C@H]2[C@@H]3CC[C@H](C(=O)NC45CC6CC(CC(C6)C4)C5)[C@@]3(C)CC[C@@H]2[C@@]2(C)C=CC(=O)C=C12 [Compound 31, 17β-N-1-Adamantylcarbamoyl-6-methyl-6-azaandrost-1,4-dien-3-one]
12 | < 10 nM | < 10 nM | C[C@]12CC[C@H]3[C@@H](CNC4=C(Br)C(=O)CC[C@@]43C)[C@@H]1CC[C@@H]2C(=O)NC12CC3CC(CC(C3)C1)C2 [Compound 55, 17β-N-1-Adamantylcarbamoyl-6-azaandrost-4-bromo-4-en-3-one]
13 | 10 to 100 nM | < 10 nM | CC1=C2NC[C@H]3[C@@H]4CC[C@H](C(=O)NC56CC7CC(CC(C7)C5)C6)[C@@]4(C)CC[C@@H]3[C@@]2(C)CCC1=O [Compound 56, 17β-N-1-Adamantylcarbamoyl-6-azaandrost-4-methyl-4-en-3-one]
14 | 10 to 100 nM | < 10 nM | CC1=C2N(C)C[C@H]3[C@@H]4CC[C@H](C(=O)NC56CC7CC(CC(C7)C5)C6)[C@@]4(C)CC[C@@H]3[C@@]2(C)CCC1=O [Compound 57, 17β-N-1-Adamantylcarbamoyl-6-methyl-6-azaandrost-4-methyl-4-en-3-one]
15 | < 10 nM | 10 to 100 nM | C[C@]12CC[C@H]3[C@@H](CNC4=CC(=O)CC[C@@]43C)[C@@H]1CC[C@@H]2C(=O)NC(c1ccccc1)c1ccccc1 [Compound 58, 17β-N-Diphenylmethylcarbamoyl-6-azaandrost-4-en-3-one]
16 | < 10 nM | 100 to 1000 nM | C[C@]12CC[C@H]3[C@@H](CNC4=CC(=O)CC[C@@]43C)[C@@H]1CC[C@@H]2C(=O)N(c1ccccc1)c1ccccc1 [Compound 59, 17β-N-Diphenylcarbamoyl-6-azaandrost-4-en-3-one]
17 | 10 to 100 nM | < 10 nM | C[C@]12CC[C@H]3[C@@H](CNC4=CC(=O)CC[C@@]43C)[C@@H]1CC[C@@H]2C(=O)NCC1CC2CCC1C2 (stereo partly drawn) [Compound 60, 17β-N-exo-2-Norbornylmethylcarbamoyl-6-azaandrost-4-en-3-one]
18 | 10 to 100 nM | 10 to 100 nM | C[C@]12CC[C@H]3[C@@H](CNC4=CC(=O)CC[C@@]43C)[C@@H]1CC[C@@H]2C(=O)NC1CC2CCC1C2 (stereo partly drawn) [Compound 61, 17β-N-endo-2-Norbornylcarbamoyl-6-azaandrost-4-en-3-one]
19 | 10 to 100 nM | 10 to 100 nM | CC1=C2NC[C@H]3[C@@H]4CC[C@H](C(=O)NC(C)(C)C)[C@@]4(C)CC[C@@H]3[C@@]2(C)CCC1=O [Compound 62, 17β-N-t-Butylcarbamoyl-6-azaandrost-4-methyl-4-en-3-one]
20 | < 10 nM | 10 to 100 nM | CC1=C2NC[C@H]3[C@@H]4CC[C@H](C(=O)CC(C)C)[C@@]4(C)CC[C@@H]3[C@@]2(C)CCC1=O [Compound 64, 17β-(1-Oxo-3-methylbutyl)-6-azaandrost-4-methyl-4-en-3-one]
21 | < 10 nM | < 10 nM | C[C@]12CC[C@H]3[C@@H](CNC4=CC(=O)CC[C@@]43C)[C@@H]1CC[C@@H]2C(=O)Nc1cccc2cc3ccccc3cc12 [Compound 67, 17β-N-1-Anthracylcarbamoyl-6-azaandrost-4-en-3-one]
22 | < 10 nM | < 10 nM | C[C@]12CC[C@H]3[C@@H](CNC4=CC(=O)CC[C@@]43C)[C@@H]1CC[C@@H]2C(=O)OC1C2CC3CC(C2)CC1C3 (stereo partly drawn) [Compound 73, 17β-Carbo-(2-adamantyl)-oxy-6-azaandrost-4-en-3-one]
23 | < 10 nM | 10 to 100 nM | C[C@]12CC[C@H]3[C@@H](CNC4=CC(=O)CC[C@@]43C)[C@@H]1CC[C@@H]2C(=O)OC12CC3CC(CC(C3)C1)C2 [Compound 74, 17β-Carbo-(1-adamantyl)-oxy-6-azaandrost-4-en-3-one]
24 | 10 to 100 nM | 100 to 1000 nM | CCN(CC)C(=O)[C@H]1CC[C@H]2[C@@H]3CNC4=CC(=O)C(C)C[C@]4(C)[C@H]3CC[C@]12C (stereo partly drawn) [Compound 75, 17β-N,N-Diethylcarbamoyl-6-azaandrost-2-(α,β)-methyl-4-en-3-one]
25 | 10 to 100 nM | 10 to 100 nM | CCN(CC)C(=O)/C=C/[C@H]1CC[C@H]2[C@@H]3CNC4=CC(=O)CC[C@]4(C)[C@H]3CC[C@]12C [Compound 76, 17β-1-(E)-Acrylyl(N,N-diethyl)amide-6-azaandrost-4-en-3-one]
26 | 10 to 100 nM | 100 to 1000 nM | CCN(CC)C(=O)[C@H]1CC[C@H]2[C@@H]3CCNC4=CC(=O)CC[C@]4(C)[C@H]3CC[C@]12C [Compound 77, 17β-N,N-Diethylcarbamoyl-6-aza-B-homoandrost-4-en-3-one]
